Assays:
[1] = system: HIV-1/LAI infected MT4 cells; format: cell-based; details: in combination with the compound of formula (4); three molar ratios; mean of three experiments
Method: In general, combinations of two compounds can act synergistically, in an additive way or antagonistically. […] For the current invention, this was assessed in an experimental setting where the potency of different ratios of the two HIV-protease inhibitors is measured. Results were plotted in an isobologram graph according to the method described by Chou and Talalay (Adv. Enzyme Regul. 22: 27-55, 1984).
The results were analyzed according to the isobologram method described by Chou and Talalay (1984).
The results are presented as the mean of three separate experiments. The combination index (CI) for each combination was determined.

[2] = Safety and tolerability (adverse events, maculopapular rash) in clinical testing
[3] = Influence of ritonavir on the pharmacokinetics of a single dose of the compound of formula (4); details: human, in vivo; for AUC: mean ± SD
[4] = Panel E (1200 mg/200 mg RTV o.d.)

Structure (SMILES): Cc1c(O)cccc1C(=O)N[C@@H](CSc1ccccc1)[C@H](O)CN1C[C@H]2CCCC[C@H]2C[C@H]1C(=O)NC(C)(C)C [nelfinavir]
- combination index (CI) [1]: 0.61-0.80

Structure (SMILES): CC(C)c1nc(CN(C)C(=O)N[C@H](C(=O)N[C@@H](Cc2ccccc2)C[C@H](O)[C@H](Cc2ccccc2)NC(=O)OCc2cncs2)C(C)C)cs1 [ritonavir]
- combination index (CI) [1]: 0.66-0.81

Structure (SMILES): Cc1cccc(C)c1OCC(=O)N[C@@H](Cc1ccccc1)[C@@H](O)C[C@H](Cc1ccccc1)NC(=O)[C@H](C(C)C)N1CCCNC1=O [lopinavir]
- combination index (CI) [1]: 0.85-0.95

Structure (SMILES): CC(C)(C)NC(=O)[C@@H]1C[C@@H]2CCCC[C@@H]2CN1C[C@@H](O)[C@H](Cc1ccccc1)NC(=O)[C@H](CC(N)=O)NC(=O)c1ccc2ccccc2n1 [saquinavir]
- combination index (CI) [1]: 0.94-1.0

Structure (SMILES): CC(C)(C)NC(=O)[C@@H]1CN(Cc2cccnc2)CCN1C[C@@H](O)C[C@@H](Cc1ccccc1)C(=O)N[C@H]1c2ccccc2C[C@H]1O [indinavir]
- combination index (CI) [1]: 0.87-0.92

Structure (SMILES): CC(C)CN(C[C@@H](O)[C@H](Cc1ccccc1)NC(=O)O[C@H]1CO[C@H]2OCC[C@H]21)S(=O)(=O)c1ccc(N)cc1 [compound of formula (4), carbamic acid [(1S,2R)-3-[[(4-aminophenyl)sulfonyl](2-methylpropyl)amino]-2-hydroxy-1-(phenylmethyl)propyl]-(3R,3aS,6aR)hexahydrofuro[2,3-b]furan-3-yl ester]
- subjects who developed maculopapular rash ([2]; 1200 mg t.i.d. alone): 4 out of 6
- itching of the body and/or redness of the skin [2, 4]: two other volunteers
- maculopapular rash [2, 4]: one volunteer with a clear maculopapular rash
- maculopapular rash ([2]; volunteers in panels A to D (with ritonavir)): No maculopapular rash was observed
- Tmax [3]: 60 min
- Tmax ([3]; 800 mg): 48 min
- AUC ([3]; 800 mg, Session I: single 800 mg dose alone): 10700 ± 3130 ng·h/mL
- AUC ([3]; 800 mg, Session II: single 800 mg dose with RTV): 98700 ± 38500 ng·h/mL

Structure (SMILES): CC(C)CN(C[C@@H](O)[C@H](Cc1ccccc1)NC(=O)O[C@H]1CCOC1)S(=O)(=O)c1ccc(N)cc1 [amprenavir]
- combination index (CI) [1]: 0.65-0.77

From patent US20050119338A1, “Combination of cytochome p450 dependent protease inhibitors” (priority 2001, published 2005)
